Laboratory results as given in patent publication US20240091254A1, “WNT AGONISTS FOR PREVENTION OF CANCER” (ACADEMISH MEDISCH CENTRUM, priority 2021, published 2024).

Key:
human colon organoids = experiment: Human colon organoids incubated with FAP CM; assay type: cell-based; conditions: FAP CM with or without LiCl
[1] = tested on: intestinal stem cells (ISCs) / intestinal epithelial cells; experiment: Oral LiCl in WT Lgr5-CreErt2;Rosa26mTmG mice: Wnt activation and neutral ISC dynamics; assay type: in vivo, mouse
Procedure: (§1) Lgr5-EGFP-IRES-Cre^ERT2 Villin-Cre^ERT2, Rosa26mTmG, Apc^fl/fl and Kras^G12D mice have been described earlier^30-34. All in vivo experiments were approved by the animal experimentation committee at the Amsterdam UMC—location Academic Medical Center in Amsterdam under nationally registered licence number AVD1180020172125 and performed according to national guidelines. Mice were housed in a 12 hour light/12 hour dark cycle, with temperatures between 20-24° C. and 40-70% humidity. For short term assays, both male and female mice were used. For long term assays, only females were used to prevent the risk of preliminary dropout due to fighting male mice. […] For all mouse experiments, sufficient sample sizes were determined based on previous studies with a similar study design^3,35. Experimental animals were randomly assigned to the control or lithium treated groups, clone sizes and adenoma counts were scored blindly. […] Mouse discomfort during tumour formation assays was closely monitored, and endpoints were determined as <15% weight loss within 2 days or a mouse grimace scale (MGS) score<3. […] After 60 days, intestines were removed and polyps were counted macroscopically.
(§2) After the mice were sacrificed, intestines were removed fully and washed thoroughly with ice-cold PBS. […] For all crypt analyses, clone sizes were quantified as proportions of the crypt circumference (in eights, 1:8-8:8). […]

[2] = tested on: Apc-/- mutant clones in crypts; experiment: Short term clonal dynamics of Notumpos/Apc-/- clones in Lgr5-CreErt2;Apcfl/fl mice; assay type: in vivo, mouse
Procedure: Lgr5-EGFP-IRES-Cre^ERT2 Villin-Cre^ERT2, Rosa26mTmG, Apc^fl/fl and Kras^G12D mice have been described earlier^30-34. All in vivo experiments were approved by the animal experimentation committee at the Amsterdam UMC—location Academic Medical Center in Amsterdam under nationally registered licence number AVD1180020172125 and performed according to national guidelines. Mice were housed in a 12 hour light/12 hour dark cycle, with temperatures between 20-24° C. and 40-70% humidity. For short term assays, both male and female mice were used. For long term assays, only females were used to prevent the risk of preliminary dropout due to fighting male mice. All mice were between 6-12 weeks old at the start of the experiments. For all mouse experiments, sufficient sample sizes were determined based on previous studies with a similar study design^3,35. Experimental animals were randomly assigned to the control or lithium treated groups, clone sizes and adenoma counts were scored blindly. In vivo low-dose recombination was induced by intraperitoneal injection (i.p.) of 0.3 mg (for Rosa26^mTmG and Kras^G12D mice) or 2 mg (for Ape^−/− mice) tamoxifen (Sigma) dissolved in sunflower oil. […] Treatment with LiCl was initiated 7 days before recombination by i.p. injection of tamoxifen and was administered until the day they were sacrificed. For short term experiments to study stem cell dynamics, mice were sacrificed at day 4, 7, 10, 14, 21 days after intra peritoneal (i.p.) injection and intestines were removed and further processed for analyses. For long term adenoma formation experiments, mice were injected with 2 mg tamoxifen and sacrificed 60 days after i.p. injection. Mouse discomfort during tumour formation assays was closely monitored, and endpoints were determined as <15% weight loss within 2 days or a mouse grimace scale (MGS) score<3. […] After 60 days, intestines were removed and polyps were counted macroscopically.
After the mice were sacrificed, intestines were removed fully and washed thoroughly with ice-cold PBS. The intestines were cut into pieces of 5 mm, opened longitudinally and fixed overnight in 4% paraformaldehyde (PFA) solution. To preserve tissue integrity the intestines were kept in 30% sucrose solution for another night before freezing. Crypt bottoms were sliced with a thickness of […] at a Cryostar™ NX70 cryostat and placed on glass slips. Fluorescent lineage tracing labels were visualized with a SP8X Confocal (Leica), slides were counterstained with Hoechst-33342. RNA-ISH stained coupes were counterstained with hematoxylin and scanned using the IntelliSite Ultra Fast 1.6 slide scanner (Philips). For all crypt analyses, clone sizes were quantified as proportions of the crypt circumference (in eights, 1:8-8:8).
RNA in situ hybridisation (RNAscope) and Basescope was performed on fixed frozen intestinal tissue (mouse) and paraffine embedded tissue (mouse and human) according to manufacturer's protocol (ACD RNAscope® 2.5 HD—Brown and Red, and ACD BaseScope™ v2—Red). RNAscope was used for detection of mouse Notum (#428981), Wif1 (#412361), Dkk2 (#404841) or positive control Ppib (#313911) and human NOTUM (#430311) and positive control PPIB (#313901). BaseScope probe ApcE14-E16 (#703011) was used to detect recombined Apc alleles. RNAscope duplex was performed using the RNAscope Duplex Reagent Kit (#322430, ACD) with additional Lgr5 probe (#312171-C2). After RNAscope procedures tissues were counterstained for Hematoxylin or Hoechst-33342. RNAscope was quantified using QuPath software v0.2.2^39.
The clone data was modelled using the models and methods developed in Vermeulen et al.^3. An R package implementing the model was used and is available at https://qithub.com/MorrisseyLab/CryptDriftR.

intestinal adenomas = experiment: Long term adenoma formation in Lgr5-CreErt2;Apcfl/fl mice; assay type: in vivo, mouse; conditions: LiCl pre-treatment and maintenance, 60 days after induction
Procedure: Lgr5-EGFP-IRES-Cre^ERT2 Villin-Cre^ERT2, Rosa26mTmG, Apc^fl/fl and Kras^G12D mice have been described earlier^30-34. All in vivo experiments were approved by the animal experimentation committee at the Amsterdam UMC—location Academic Medical Center in Amsterdam under nationally registered licence number AVD1180020172125 and performed according to national guidelines. Mice were housed in a 12 hour light/12 hour dark cycle, with temperatures between 20-24° C. and 40-70% humidity. For short term assays, both male and female mice were used. For long term assays, only females were used to prevent the risk of preliminary dropout due to fighting male mice. All mice were between 6-12 weeks old at the start of the experiments. For all mouse experiments, sufficient sample sizes were determined based on previous studies with a similar study design^3,35. Experimental animals were randomly assigned to the control or lithium treated groups, clone sizes and adenoma counts were scored blindly. […] Mouse discomfort during tumour formation assays was closely monitored, and endpoints were determined as <15% weight loss within 2 days or a mouse grimace scale (MGS) score<3. […] After 60 days, intestines were removed and polyps were counted macroscopically.

KrasG12D-mutant clones = experiment: KrasG12D clone dynamics in vivo with or without LiCl; parameters: species or system mouse; conditions: Lgr5-CreErt2;Rosa26mTmG;KrasG12D mice
Procedure: as §1, §2

Structure (SMILES): [Cl-].[Li+] [LiCl, lithium chloride]
- Stemness (LGR5 expression) and clonogenicity of human colon organoids incubated with FAP CM (human colon organoids): rescued loss of sternness and clonogenicity
- Influence on fundamental ISC dynamics (neutral ISC competition) ([1]; WT mice, oral LiCl): no influence on fundamental ISC dynamics
- Wnt activation in intestinal epithelial cells (Lgr5 expression, Lgr5-GFP cells) ([1]; oral LiCl 300 mg/liter in tap water): effective Wnt activation
- Reduction of Lgr5 expression by Notumpos/Apc-/- clones within the same and neighbouring crypts ([2]; Lgr5-CreErt2;Apcfl/fl mice, oral LiCl): prevented this
- Number of Notumpos clones (crypts) ([2]; LiCl treated mice, day 21): reduced number of Notum^pos clones
- Probability of clonal fixation in a crypt (Pfix) ([2]; LiCl treated mice, model): markedly reduced probability of clonal fixation
- Number of functional ISCs (WT stem cells, NWT) in crypts ([2]; LiCl treated mice, adapted drift model, 4.7 untreated with Apc-/- clones, 5.6 fully WT crypts): 6.5 (95% Cl: 6.2-6.8)
- Probability of replacement (PR) of WT ISCs by Apc-/- ISCs ([2]; LiCl treated mice, inferred by stem cell drift model, untreated 0.65, neutral 0.5): 0.34 (95% Cl: 0.31-0.37)
- Rate of Notumpos/Apc-/- clone expansion and fixation ([2]; LiCl versus non-treated mice, up to day 21): significantly reduced
- Adenoma formation (number of adenomas) (intestinal adenomas): markedly reduced adenoma formation in all segments of the intestine
- KrasG12D clone dynamics (KrasG12D-mutant clones): remained unaffected
